According to patent US20090131331A1 (DSM IP ASSETS B.V., priority 2005, published 2009):

Columns and labels:
ACE [1] = target: ACE (Homo sapiens, UniProt P12821); conditions: literature (Nakamura 1995; Aryoshi 1993); read-out: IC50 reported earlier as ACE inhibiting peptides; cited from earlier work
[2] = test system: pepsin (Fluka order no. 77161); 8 times USP pancreatin (Sigma order no. P7545); experiment: simulated human gastro-intestinal tract (GIT procedure): pepsin with falling pH, then pancreatin up to pH 7.1; conditions: 37.5° C., up to t=125 min
ACE [3] = experiment: at-line ACE inhibition assay; assay type: biochemical
Procedure: For the at-line ACE inhibition assay 27 μl of a 33.4 mU ml^−1 ACE (enzyme obtained from Sigma) in phosphate buffered saline (PBS) pH 7.4 with a chloride concentration of 260 mM was added and the mixture was allowed to incubate for 5 minutes on a 96 well plate mixer at 700 RPM. After the incubation period 13 μl of a 0.35 mM hippuric acid-histidine leucine (HHL) solution in PBS buffer was added and mixed for 1 minute at 700 RPM. The mixture was allowed to react for 60 minutes at 50° C. in a GC-oven. After the reaction the plate was cooled in melting ice.
The 96 well plate was then analysed on a flash-HPLC-column. Of the reaction mixture of each well 30 μl was injected on a Chromlith Flash RP18e 25×4.6 mm HPLC column (Merck, Darmstadt, Germany) equipped with a 10×4.6 mm RP18e guard column from the same supplier. The isocratic mobile phase consisted of a 0.1% solution of TFA in water/acetonitrile 79/21. […] Hippuric acid (H) and HHL were monitored at 280 nm. The peak heights of H and HHL were measured and the ACE inhibition (ACEI) of each fraction was calculated according to the equation: […]
• DCw Degree of Cleavage by ACE of HHL to H and HL in water • DCa Degree of Cleavage of HHL to H and HL for the analyte The Degree of Cleavage was calculated by expressing the peak height of H as a fraction of the sum of the peak heights of H and HHL.

ACE [4] = experiment: modified Matsui ACE inhibition assay; assay type: biochemical; conditions: as stated in description text; read-out: IC50 value in the Modified Matsui test
Procedure: To determine the ACE inhibition activity of MAP and ITP, the chemically synthesised tripeptides were assayed according to the method of Matsui et al. (Matsui, T. et al. (1992) Biosci. Biotech. Biochem. 56: 517-518) with some minor modifications.
Each one of the four samples contained 75 μl 3 mM hippuryl histidine leucine (Hip-His-Leu, Sigma) dissolved in a 250 mM borate solution containing 200 mM NaCl, pH 8.3. ACE was obtained from Sigma. The mixtures were incubated at 37° C. and stopped after 30 min by adding 125 μl 0.5 M HCl. […] After incubation for 20 min. at 37° C., 4 ml 4 mM Na2SO3 in 0.2 M NaH2PO4 was added and the light absorbance at 416 nm was measured with UV/Vis spectrophotometer (Shimadzu UV-1601 with a CPS controller, Netherlands).
The amount of ACE inhibition (ACEI) activity was calculated as a percentage of inhibition compared with the conversion rate of ACE in the absence of an inhibitor according to the following formula: […]
Control 1=Absorbance without ACE inhibitory component (=max. ACE activity) [AU]. Control 2=Absorbance without ACE inhibitory component and without ACE (background) [AU]. Sample1=Absorbance in the presence of ACE and the ACE inhibitory component [AU]. Sample 2=Absorbance in the presence of the ACE inhibitory component, but without ACE [AU]. […]

[5] = test system: ACE (enzyme obtained from Sigma); experiment: ACE in phosphate buffered saline (PBS) pH 7.4 with a chloride concentration of 260 mM; conditions: 50° C., up to 60 minutes

ACE (Homo sapiens, UniProt P12821), sequence (P12821 30-1306, species assumed): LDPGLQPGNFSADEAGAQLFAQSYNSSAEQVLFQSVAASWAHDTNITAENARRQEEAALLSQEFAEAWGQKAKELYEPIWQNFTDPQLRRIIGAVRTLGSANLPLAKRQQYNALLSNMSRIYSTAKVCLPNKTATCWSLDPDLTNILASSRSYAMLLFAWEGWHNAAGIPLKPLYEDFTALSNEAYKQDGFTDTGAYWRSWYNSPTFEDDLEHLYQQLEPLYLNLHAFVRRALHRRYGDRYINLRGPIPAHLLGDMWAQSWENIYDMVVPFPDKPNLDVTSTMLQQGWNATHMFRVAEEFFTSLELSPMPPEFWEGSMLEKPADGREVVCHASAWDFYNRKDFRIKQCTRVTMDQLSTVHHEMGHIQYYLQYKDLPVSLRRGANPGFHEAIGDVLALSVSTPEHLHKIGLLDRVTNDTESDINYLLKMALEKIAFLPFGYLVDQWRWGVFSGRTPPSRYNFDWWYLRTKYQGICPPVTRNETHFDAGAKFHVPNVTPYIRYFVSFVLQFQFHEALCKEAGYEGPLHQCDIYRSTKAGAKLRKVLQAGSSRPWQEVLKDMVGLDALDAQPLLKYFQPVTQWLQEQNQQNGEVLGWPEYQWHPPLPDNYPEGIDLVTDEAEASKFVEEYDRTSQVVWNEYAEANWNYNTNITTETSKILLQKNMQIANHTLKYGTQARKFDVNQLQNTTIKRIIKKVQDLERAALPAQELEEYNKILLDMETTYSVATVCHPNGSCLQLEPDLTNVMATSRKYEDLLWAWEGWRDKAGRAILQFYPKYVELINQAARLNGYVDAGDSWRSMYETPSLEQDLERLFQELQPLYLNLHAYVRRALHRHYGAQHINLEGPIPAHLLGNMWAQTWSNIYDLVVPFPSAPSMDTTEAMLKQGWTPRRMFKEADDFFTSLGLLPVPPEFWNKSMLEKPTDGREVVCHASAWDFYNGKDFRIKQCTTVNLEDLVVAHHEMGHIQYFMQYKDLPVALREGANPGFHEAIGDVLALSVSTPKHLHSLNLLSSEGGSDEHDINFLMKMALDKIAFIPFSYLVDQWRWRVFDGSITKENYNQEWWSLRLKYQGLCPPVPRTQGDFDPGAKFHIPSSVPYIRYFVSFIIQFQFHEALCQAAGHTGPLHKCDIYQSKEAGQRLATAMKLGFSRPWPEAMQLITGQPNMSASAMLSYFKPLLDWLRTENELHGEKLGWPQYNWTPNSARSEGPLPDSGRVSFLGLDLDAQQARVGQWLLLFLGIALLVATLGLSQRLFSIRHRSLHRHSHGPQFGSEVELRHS

LPP: known ACE inhibiting tripeptide, β-casein f151-153 (UniProt P02666 166-168, looked up, fragment)
IC50 (ACE [1]): 9.6 µM

Met-Ala-Pro
amount per gram powder before and after GIT [2]: 2851.4 μg g^−1 powder before, 3095.8 after GIT

IPP: known ACE inhibiting tripeptide, kappa-casein f 108-110; chemically synthesized internal reference
IC50 (ACE [3]): 7.1 µM
IC50 (ACE [1]): 5 µM
IC50 (ACE [4]): 2 µM

Hip-His-Leu
cleaved bond [5]: Hip-His
